In patent publication US5698552A, “Hetrazepinoid amides” (Boehringer Ingelheim KG, priority 1990, dated 1997) one finds IC50 and Ki data, which are given here for five compounds.

The subject of assay [1] is PAF-induced platelet aggregation. The assay can be described thus: Inhibition of PAF-induced platelet aggregation in vitro (Born and Cross method). It is filed as cell-based, healthy male and female donors (human). The conditions noted are these: PAF 5 ×10^-8 M; human platelet-rich plasma (TRP); n=4; read-out: PAF-induced platelet aggregation (inhibition, IC50 = concentration at 50% aggregation inhibition). As for the experimental part:
200 ml samples of blood were taken from a non-obstructed vein, with the aid of a plastic syringe containing 3.8% sodium citrate solution, from healthy male and female donors aged from 18 to 35 years who had not taken any medicaments (aspirin or other non-steroid anti-inflammatories) for several days before the blood withdrawal. The ratio of sodium citrate solution:blood was 1:9. The citrated blood was centrifuged in plastic tubes at 150 ×g (=1,200 rpm) at room temperature for 20 min (Heraeus Christ bench centrifuge 124).
The platelet aggregation was measured in vitro by the method of Born and Cross (1963), an aggregation inducer (PAF) being added to the TRP, while stirring constantly. For the measurement, 0.8 ml TRP and 0.2 ml modified Tyrode's solution (see below) were introduced into 1 ml plastic cells, each of which contained a small metal pin (stirrer, 1,000 rpm). The test substance was added in a volume of 10 μl for 2 to 3 min before inducing the aggregation. Either DMSO and water or a dilute HCl solution was used as the solvent. The control batches contained the corresponding volume of these solvents. After recording the initial absorption (2-3 min), aggregation was induced. PAF (5 ×10^-8 M; Bachem Feinchemikalien) was introduced into the cell in a volume of 10 μl.
The modified Tyrode's solution had the following composition: 136.9 mM NaCl; 2.68 mM KCl; 0.5 mM MgCl2; 1.8 mM CaCl2; 0.42 mM NaH2 PO4; 5.55 mM glucose and 11.9 mM NaHCO3.
To evaluate substance effects, the maximum of the first aggregation wave was used. The maximum absorption induced by the aggregation inducer (=maximum aggregation=100%) was simultaneously run in a parallel batch (in the 2nd channel of the aggregometer) to each test batch and used as the 100% value. The aggregation value achieved under the action of the test substance was quoted as % of the control value (batch).
Concentration/effect curves with a random sample size of in each case n=4 were plotted with the aid of this method and IC50 values (concentration at 50% aggregation inhibition) were calculated.

For a further assay, the target named is T1, PAF receptor (Homo sapiens, UniProt P25105).
T1 construct: determined using human thrombocytes; endogenous in cells; host or cells: human thrombocytes (platelets)
Put plainly: 3H-PAF-receptor bonding on human thrombocytes (platelets). It is filed as binding. The conditions noted are these: method as in European Patent Application 368 175. How it is done:
Then, at 20° C., 18.3 g (0.12 mol) of hydroxybenzotriazole (HOBT), 23.7 g (0.109 mol) of N-4-trifluoromethylbenzyl-N-n-propylamine and 25.6 g (0.125 mol) of dicyclohexyl-carbodiimide (DCCI) and a further 250 ml of dimethylformamide (DMF) were added. The mixture was left to react for 24 hours. It was then cooled to 5° C. and filtered. 500 ml of water were added to the filtrate and it was extracted with ethyl acetate. The combined organic phases were washed with water and saturated sodium hydrogen carbonate solution, dried with magnesium sulphate and filtered over kieselguhr/char-coal. After working up in the usual way, 50 g of colourless crystals of the title compound are obtained by crystallisation from ethanol/diisopropylether (1:1). […] (The method used is described for example in European Patent Application 368 175).

T1 sequence (P25105 whole entry): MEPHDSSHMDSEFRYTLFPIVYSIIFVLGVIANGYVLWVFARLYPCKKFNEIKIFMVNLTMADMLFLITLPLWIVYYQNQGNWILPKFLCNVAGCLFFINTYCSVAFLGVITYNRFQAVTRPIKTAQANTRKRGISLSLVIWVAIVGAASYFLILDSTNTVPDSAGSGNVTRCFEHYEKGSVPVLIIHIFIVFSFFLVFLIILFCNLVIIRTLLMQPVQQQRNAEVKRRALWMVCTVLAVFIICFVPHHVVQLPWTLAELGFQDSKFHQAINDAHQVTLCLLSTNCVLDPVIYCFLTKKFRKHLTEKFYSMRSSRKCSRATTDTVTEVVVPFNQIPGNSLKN

On to `CCCN(Cc1ccccc1)C(=O)[C@@H]1Cc2sc3c(c2C1)C(c1ccccc1Cl)=NCc1nnc(C)n1-3` [Example 2, S(-)-3-(Benzylpropylaminocarbonyl)-5-(2-chlorophenyl)-10-methyl-7H-cyclopenta[4,5]thieno[3,2-f][1,2,4]-triazolo-[4,3-a][1,4]diazepine], for which, in assay [1], the IC50 came to 0.049 µM.

On to `CCN(Cc1ccccc1)C(=O)[C@@H]1Cc2sc3c(c2C1)C(c1ccccc1Cl)=NCc1nnc(C)n1-3` [Example 6, S(-)-3-(Benzylethylaminocarbonyl)-5-(2-chlorophenyl)-10-methyl-7H-cyclopenta[4,5]thieno[3,2-f][1,2,4]triazolo-[4,3-a][1,4]diazepine], for which the IC50 in assay [1] was 0.023 µM.

Consider `CCCCN(Cc1ccccc1)C(=O)[C@@H]1Cc2sc3c(c2C1)C(c1ccccc1Cl)=NCc1nnc(C)n1-3` [Example 7, S(-)-3-(Benzylbutylaminocarbonyl)-5-(2-chlorophenyl)-10-methyl-7H-cyclopenta[4,5]thieno-[3,2-f][1,2,4]triazolo-[4,3-a][1,4]diazepine], for which the IC50 in assay [1] is 0.084 µM.

As for `Cc1nnc2n1-c1sc3c(c1C(c1ccccc1Cl)=NC2)C[C@H](C(=O)N(Cc1ccccc1)Cc1ccccc1)C3` [Example 10, S(--)-3-(Dibenzylaminocarbonyl)-5-(2-chlorophenyl)-10-methyl-7H-cyclopenta[4,5]thieno-[3,2-f][1,2,4]-triazolo-[4,3-a][1,4]diazepine], the IC50 in assay [1] was 0.037 µM.

Regarding `CCCN(Cc1ccc(C(F)(F)F)cc1)C(=O)[C@@H]1Cc2sc3c(c2C1)C(c1ccccc1Cl)=NCc1nnc(C)n1-3` [Example 18], the inhibition constant (Ki) (as a rule, the dissociation constant of the complex between target and ligand, obtained from inhibition or displacement) at PAF receptor is 0.0018 µM.
